IC50 data for 48 compounds are collected here from patent US6596687B1, “Cell adhesion inhibitors” (Biogen, Inc., priority 1995, dated 2003).

Numbered stars: 1 amine (or outer) side, 2 acyl side, 3 side chain; on linkers, the order of the positions; unused ones are H or OH. Square brackets hold non-standard residues; d marks the D form. Peptide text beside a SMILES is read from it. * marks the point of attachment. X2 = O=C(Cc1ccc(N[*:1])cc1)[*:2]; Piperidide = C1CCN(*)CC1; PhAc = O=C(Cc1ccccc1)*; CO = O=C([*:1])[*:2]; NHPh = c1ccc(N*)cc1; X4 = c1ccc(N*)nc1; X1 = Oc1ccccc1N*; NHiPr = CC(C)N*

In the test the target is T1, VLA4 (Homo sapiens, UniProt P05556+P13612).
T1 construct: endogenous in cells; host or cells: Ramos cells
T1 sequence (P13612 34-1032): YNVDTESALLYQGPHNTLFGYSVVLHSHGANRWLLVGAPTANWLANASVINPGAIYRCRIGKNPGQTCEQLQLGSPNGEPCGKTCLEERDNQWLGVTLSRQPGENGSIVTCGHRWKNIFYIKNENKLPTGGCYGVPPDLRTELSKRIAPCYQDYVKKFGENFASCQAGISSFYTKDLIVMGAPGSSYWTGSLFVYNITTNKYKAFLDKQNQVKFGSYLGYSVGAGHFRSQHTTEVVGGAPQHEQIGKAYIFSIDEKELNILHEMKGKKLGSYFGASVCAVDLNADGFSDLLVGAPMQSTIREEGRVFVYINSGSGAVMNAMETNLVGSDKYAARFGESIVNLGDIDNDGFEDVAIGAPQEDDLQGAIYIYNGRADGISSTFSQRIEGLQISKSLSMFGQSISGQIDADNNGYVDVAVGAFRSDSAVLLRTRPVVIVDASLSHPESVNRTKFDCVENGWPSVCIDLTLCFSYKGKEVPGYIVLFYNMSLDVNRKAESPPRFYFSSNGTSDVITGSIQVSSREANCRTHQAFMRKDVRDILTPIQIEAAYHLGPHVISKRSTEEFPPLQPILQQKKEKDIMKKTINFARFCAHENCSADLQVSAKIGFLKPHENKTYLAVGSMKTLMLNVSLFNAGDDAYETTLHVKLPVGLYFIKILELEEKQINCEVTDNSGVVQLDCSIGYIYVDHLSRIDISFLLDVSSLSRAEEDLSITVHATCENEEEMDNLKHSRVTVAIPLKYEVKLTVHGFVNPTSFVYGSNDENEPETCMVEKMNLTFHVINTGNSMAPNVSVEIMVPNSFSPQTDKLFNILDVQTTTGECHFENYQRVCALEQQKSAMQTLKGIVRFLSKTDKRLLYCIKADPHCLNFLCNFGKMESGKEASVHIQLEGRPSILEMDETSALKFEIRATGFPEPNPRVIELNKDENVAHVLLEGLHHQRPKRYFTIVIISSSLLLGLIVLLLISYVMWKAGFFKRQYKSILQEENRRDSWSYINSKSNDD
T1 sequence (P05556 21-798): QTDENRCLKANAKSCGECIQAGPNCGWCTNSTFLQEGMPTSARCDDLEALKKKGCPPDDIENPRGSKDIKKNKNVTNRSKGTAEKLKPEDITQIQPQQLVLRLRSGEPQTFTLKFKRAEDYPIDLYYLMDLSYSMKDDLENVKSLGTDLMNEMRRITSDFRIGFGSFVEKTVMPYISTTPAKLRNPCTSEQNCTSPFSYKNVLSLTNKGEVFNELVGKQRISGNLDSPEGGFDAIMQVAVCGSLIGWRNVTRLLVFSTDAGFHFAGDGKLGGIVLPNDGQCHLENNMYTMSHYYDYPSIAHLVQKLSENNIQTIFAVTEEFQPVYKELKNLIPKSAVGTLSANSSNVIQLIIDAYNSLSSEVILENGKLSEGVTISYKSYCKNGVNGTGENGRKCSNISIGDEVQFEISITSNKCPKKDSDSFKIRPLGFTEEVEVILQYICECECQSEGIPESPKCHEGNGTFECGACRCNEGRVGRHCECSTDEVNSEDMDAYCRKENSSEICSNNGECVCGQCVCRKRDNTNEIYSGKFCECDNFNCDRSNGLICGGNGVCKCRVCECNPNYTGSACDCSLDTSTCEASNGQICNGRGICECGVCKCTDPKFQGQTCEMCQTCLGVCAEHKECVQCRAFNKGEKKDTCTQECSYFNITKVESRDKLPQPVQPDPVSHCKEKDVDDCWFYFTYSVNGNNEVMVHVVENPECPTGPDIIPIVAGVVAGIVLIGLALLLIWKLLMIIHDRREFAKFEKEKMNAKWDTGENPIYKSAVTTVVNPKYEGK
Put plainly: Inhibition of VLA4-dependent adhesion of Ramos cells to BSA-CS1. To be noted: Ramos cells, BSA-CS1 coated wells, 2 mM MnCl2, 30 minutes at room temperature; read-out: IC50. Type of test: cell-based. In a few lines:
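BCECF-AM-labelled Ramos cells in Tris buffer pH 7.4 with 2 mM MnCl2 were added with compound to wells coated with BSA-conjugated Cys-Tyr-CS1 peptide (1 μg/mL). Cells and compound were incubated for 30 min at room temperature, in triplicate. Inhibition was quantified from bound fluorescence against no-compound controls, with uncoated wells used for nonspecific binding.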
A word on the IC50: it is the concentration that gives 50% inhibition. With `CC(C)C[C@H](NC(=O)c1ccc2ccccc2n1)C(=O)N[C@@H](CC(=O)O)C(=O)N[C@H](C(=O)N1CCOCC1)[C@@H](C)O` [Compound 61], the IC50 is 0.05 to 10 µM.

For `CNC(=O)[C@@H](NC(=O)[C@H](CC(=O)O)NC(=O)C1(NC(=O)OC(C)(C)C)CCc2ccccc2C1)C(C)C` (stereo partly drawn) [Compound 133], the IC50 was greater than 10 µM.

In the case of `COC(=O)[C@@H]1CCCN1C(=O)[C@@H](NC(=O)[C@H](CC(=O)O)NC(=O)[C@H](CC(C)C)NC(=O)Cc1ccccc1)C(C)C` [Compound 35], the half-maximal inhibitory concentration (IC50) was 0.05 to 10 µM.

On to `COc1ccc(CNC(=O)[C@@H](NC(=O)[C@H](CC(=O)O)NC(=O)[C@H](CC(C)C)NC(=O)c2ccc3ccccc3n2)[C@@H](C)O)cc1` [Compound 197], for which the IC50 is 0.05 to 10 µM.

Turning to `CC(C)(C)OC(=O)N[C@@H](CC(=O)O)C(=O)N1CCC[C@H]1C(=O)NCC(=O)O` [Compound 135] (HELM PEPTIDE1{[CC(C)(C)OC(=O)[*:2]].D.P.G}$$$$V2.0), the IC50 was greater than 10 µM.

As for `CNC(=O)[C@@H](NC(=O)[C@H](CC(=O)O)NC(=O)[C@H](CCCCN)NC(=O)Cc1ccccc1)C(C)C` [Compound 350] (HELM PEPTIDE1{[O=C(Cc1ccccc1)[*:2]].K.D.V.[CN[*:1]]}$$$$V2.0), the IC50 was greater than 10 µM.

Turning to `CC(C)C[C@H](NC(=O)c1cc2ccccc2cn1)C(=O)N[C@@H](CC(=O)O)C(=O)N[C@H](C(=O)N1CCC[C@H]1C(=O)O)C(C)C` [Compound 32], the IC50 was greater than 10 µM.

With `CC(C)C[C@H](NC(=O)Cc1ccc(NC(=O)Nc2ccccc2)cc1)C(=O)N[C@@H](CC(=O)O)C(=O)N[C@H](C(=O)NCc1ccccc1)C(C)C` [Compound 321], the concentration for half-maximal inhibition (IC50) lay in the range of 0.05 to 10 µM.

As to `CNC(=O)[C@@H](NC(=O)[C@H](CC(=O)O)NC(=O)[C@H](CC(C)C)NC(=O)Nc1ccc(C)cc1)C(C)C` [Compound 48], the 50% inhibitory concentration (IC50) is greater than 10 µM.

Consider `CC(C)C[C@H](NC(=O)Cc1ccccc1)C(=O)N[C@@H](CC(=O)O)C(=O)N1CCC[C@H]1C(=O)NC(C(=O)O)C(=O)O` [Compound 138], for which the half-maximal inhibitory concentration (IC50) is greater than 10 µM.

`CC(C)C[C@H](NC(=O)Cc1ccc(NC(=O)Nc2ccccc2)cc1)C(=O)N[C@@H](CC(=O)O)C(=O)N[C@H](C(=O)N1CCC[C@H]1C(=O)N1CCCCC1)C(C)C` [Compound 325] ({NHPh-CO}-[X2]LDVP-Piperidide): the IC50 was in the range of 0.05 to 10 µM.

As for `COc1nc(CC(=O)N[C@@H](CC(C)C)C(=O)N[C@@H](CC(=O)O)C(=O)N[C@H](C(N)=O)C(C)C)ccc1NC(=O)Nc1ccccc1C` [Compound 3], the IC50 is less than 0.05 µM.

As to `COc1ccc(C(=O)N[C@@H](CC(C)C)C(=O)N[C@@H](CC(=O)O)C(=O)NCC(C)C)cc1` [Compound 165], the IC50 was greater than 10 µM.

Consider `CC(C)C[C@H](NC(=O)C1Cc2ccccc2CN1)C(=O)N[C@@H](CC(=O)O)C(=O)O` (stereo partly drawn) [Compound 23] (HELM PEPTIDE1{[O=C(C1Cc2ccccc2CN1)[*:2]].L.D}$$$$V2.0), for which the IC50 was greater than 10 µM.

For `CC(C)C[C@H](NC(=O)Cc1ccc(NC(=O)Nc2ccccc2)cc1)C(=O)N[C@@H](CC(=O)O)C(=O)N[C@H](C(=O)N1CCC[C@H]1C(=O)NC(C)C)C(C)C` [Compound 327] ({NHPh-CO}-[X2]LDVP-NHiPr), the IC50 was less than 0.05 µM.

In the case of `COC(=O)[C@H](CCSC)NC(=O)[C@@H](NC(=O)[C@H](CC(=O)O)NC(=O)[C@H](CC(C)C)NC(=O)c1ccc2ccccc2n1)C(C)C` [Compound 168] (HELM PEPTIDE1{[O=C(c1ccc2ccccc2n1)[*:2]].L.D.V.M.[CO[*:1]]}$$$$V2.0), the IC50 was in the range of 0.05 to 10 µM.

Consider `COC(=O)[C@@H](NC(=O)[C@H](CC(=O)O)NC(=O)[C@H](CC(C)C)NC(=O)CCCc1ccccc1)C(C)C` [Compound 166], for which the IC50 was greater than 10 µM.

As for `CNC(=O)[C@@H](NC(=O)[C@H](CC(=O)O)NC(=O)[C@H](CC(C)C)N(C)C(=O)CCCc1ccccc1)C(C)C` [Compound 348], the 50% inhibitory concentration (IC50) was greater than 10 µM.

With `CC(C)C[C@H](NC(=O)CCC(=O)Nc1ccc(F)cc1)C(=O)N[C@@H](CC(=O)O)C(=O)N[C@H](C(=O)O)C(C)C` [Compound 108], the IC50 was greater than 10 µM.

Turning to `CC(C)C[C@H](NC(=O)Cc1ccc(NC(=O)Nc2ccccn2)cc1)C(=O)N[C@@H](CC(=O)O)C(=O)N[C@H](C(=O)N1CCC[C@H]1C(=O)O)C(C)C` [Compound 316] ({X4-CO}-[X2]LDVP-OH), the IC50 was less than 0.05 µM.

With `COC(=O)[C@@H](NC(=O)[C@H](CC(=O)O)NC(=O)[C@H](CC(C)C)NC(=O)c1ccc2ccccc2n1)[C@@H](C)O` [Compound 170], the IC50 is greater than 10 µM.

Take `Cc1ccccc1NC(=O)Nc1ccc(CC(=O)N[C@@H](CO)C(=O)N[C@@H](CC(=O)O)C(=O)N[C@@H](CCC(=O)O)C(N)=O)cc1` [Compound 279]: the IC50 is less than 0.05 µM.

As to `CNC(=O)[C@@H](NC(=O)[C@H](CC(=O)O)NC(=O)[C@H](CC(C)C)NC(=O)c1ccc2ccccc2n1)C(C)C` [Compound 164], the IC50 is 0.05 to 10 µM.

For `CC(C)CCNC(=O)[C@H](CC(=O)O)NC(=O)[C@H](CC(C)C)NC(=O)CCc1ccc(O)cc1` [Compound 103], the IC50 was greater than 10 µM.

Take `CNC(=O)[C@@H](NC(=O)[C@H](CC(=O)O)NC(=O)[C@@H]1CCCN1C(=O)Cc1ccccc1)C(C)C` [Compound 130] (HELM PEPTIDE1{[O=C(Cc1ccccc1)[*:2]].P.D.V.[CN[*:1]]}$$$$V2.0): the IC50 is greater than 10 µM.

Turning to `Cc1ccccc1NC(=O)Nc1ccc(CC(=O)N[C@@H](CC(C)C)C(=O)N[C@@H](CC(=O)O)C(=O)N[C@@H](Cc2c[nH]c3ccccc23)C(N)=O)cc1` [Compound 239], the IC50 is less than 0.05 µM.

For the compound `CNC(=O)[C@@H](NC(=O)[C@H](CC(=O)O)NC(=O)[C@H](CO)NC(=O)Cc1ccccc1)C(C)C` [Compound 349] (HELM PEPTIDE1{[O=C(Cc1ccccc1)[*:2]].S.D.V.[CN[*:1]]}$$$$V2.0), the 50% inhibitory concentration (IC50) is greater than 10 µM.

In the case of `CC(C)CNC(=O)[C@H](CC(=O)O)NC(=O)[C@H](CC(C)C)NC(=O)CCCc1ccccc1` [Compound 161], the half-inhibitory concentration (IC50) is greater than 10 µM.

Turning to `COC(=O)[C@@H]1CCCN1C(=O)[C@@H](NC(=O)[C@H](CC(=O)O)NC(=O)[C@H](CC(C)C)NC(=O)CCc1ccccc1)C(C)C` [Compound 37], the IC50 is greater than 10 µM.

Take `CC(C)[C@H](NC(=O)[C@H](CC(=O)O)NC(=O)c1cc2ccccc2cn1)C(=O)O` [Compound 70]: the 50% inhibitory concentration (IC50) was greater than 10 µM.

Consider `CC(C)C[C@H](NC(=O)Cc1ccc(NC(=O)Nc2ccccc2O)cc1)C(=O)N[C@@H](CC(=O)O)C(=O)N[C@H](C(=O)N1CCC[C@H]1C(=O)O)C(C)C` [Compound 144] ({X1-CO}-[X2]LDVP-OH), for which the IC50 was less than 0.05 µM.

In the case of `COC(=O)[C@@H](NC(=O)[C@H](CC(=O)O)NC(=O)[C@H](CC(C)C)N(C)C(=O)Cc1ccc(O)cc1)C(C)C` [Compound 141], the IC50 is greater than 10 µM.

In the case of `COC(=O)[C@@H](NC(=O)[C@H](CC(=O)O)NC(=O)[C@H](CC(C)C)NC(=O)Cc1ccccc1)[C@@H](C)OC(C)=O` [Compound 193] (PhAc-Leu-Asp-Thr(Ac)-OMe), the IC50 was greater than 10 µM.

In the case of `CC(C)C[C@H](NC(=O)c1ccc2ccccc2n1)C(=O)N[C@@H](CC(=O)O)C(=O)N[C@H](C(=O)Nc1ccc(F)cc1)C(C)C` [Compound 123], the IC50 was greater than 10 µM.

`CC(C)C[C@H](NC(=O)c1ccc2ccccc2n1)C(=O)N[C@@H](CC(=O)O)C(=O)N[C@H](C(=O)NC(C)(C)C)[C@@H](C)O` [Compound 60]: the IC50 is greater than 10 µM.

Regarding `CNC(=O)[C@@H](NC(=O)[C@H](CC(=O)O)NC(=O)[C@H](CC(N)=O)NC(=O)Cc1ccccc1)C(C)C` [Compound 132] (HELM PEPTIDE1{[O=C(Cc1ccccc1)[*:2]].N.D.V.[CN[*:1]]}$$$$V2.0), the IC50 is greater than 10 µM.

Turning to `CC(C)C[C@H](NC(=O)Cc1ccc(NC(=O)Nc2ccccc2)cc1)C(=O)N[C@@H](CC(=O)O)C(=O)N[C@H](C(=O)O)C(C)C` [Compound 203], the 50% inhibitory concentration (IC50) is less than 0.05 µM.

Regarding `CC(C)C[C@H](NC(=O)[C@H](CC(=O)O)NC(=O)[C@H](CC(C)C)NC(=O)c1cc2ccccc2cn1)C(=O)O` [Compound 91], the IC50 is greater than 10 µM.

With `CC(C)CNC(=O)[C@H](CC(=O)O)NC(=O)[C@H](CC(C)C)NC(=O)c1cc2ccccc2cn1` [Compound 157], the IC50 fell in the range of 0.05 to 10 µM.

`COC(=O)[C@@H](NC(=O)[C@H](CC(=O)O)NC(=O)[C@H](CC(C)C)N(CCc1ccccc1)C(=O)CCc1ccccc1)C(C)C` [Compound 30]: the concentration for half-maximal inhibition (IC50) is greater than 10 µM.

With `CC(C)CNC(=O)[C@H](CC(=O)O)NC(=O)[C@H](CC(C)C)NC(=O)CCCCc1ccccc1` [Compound 106], the half-inhibitory concentration (IC50) is greater than 10 µM.

With `COC(=O)[C@@H](NC(=O)[C@H](CC(=O)O)NC(=O)[C@H](CC(C)C)N(C)C(=O)c1ccc2ccccc2n1)C(C)C` [Compound 142], the concentration for half-maximal inhibition (IC50) was greater than 10 µM.

For the compound `CC(C)CNC(=O)[C@@H](NC(=O)[C@H](CC(=O)O)NC(=O)[C@H](CC(C)C)NC(=O)Cc1ccc(NC(=O)Nc2ccccc2)cc1)C(C)C` [Compound 205], the IC50 lay in the range of 0.05 to 10 µM.

On to `CC(C)[C@H](NC(=O)[C@H](CC(=O)O)NC(=O)CCCCc1ccccc1)C(=O)N1CCC[C@H]1C(=O)O` [Compound 150], for which the half-maximal inhibitory concentration (IC50) is greater than 10 µM.

On to `COC(=O)[C@@H](NC(=O)[C@H](CC(=O)O)NC(=O)[C@H](CC(C)C)NC(=O)Cc1ccccc1)[C@@H](C)OC` [Compound 190] (PhAc-Leu-Asp-Thr(Me)-OMe), for which the IC50 is greater than 10 µM.

In the case of `CC(C)CC(NC(=O)Cc1ccc(NC(=O)Nc2ccccc2)cc1)C(=O)NC(CC(=O)O)C(=O)NC(C(=O)N1CCCC1C(N)=O)C(C)C` (stereo not drawn) [Compound 211] ({NHPh-CO}-[X2]LDVP-NH2; configuration not given here), the IC50 was 0.05 to 10 µM.

Consider `Cc1ccccc1NC(=O)Nc1ccc(CC(=O)N2CCC[C@H]2C(=O)N[C@@H](CCC(=O)O)C(=O)N[C@H](C(N)=O)C(C)C)cc1` [Compound 313], for which the IC50 is less than 0.05 µM.

In the case of `CC(C)C[C@H](NC(=O)C(Cc1ccc(O)cc1)N(S(C)(=O)=O)S(C)(=O)=O)C(=O)N[C@@H](CC(=O)O)C(=O)N[C@H](C(=O)O)C(C)C` (stereo partly drawn) [Compound 65], the IC50 is greater than 10 µM.
